pIC50: −log10 of the molar value.
Legend:
[1] = tested on: SW480 cells; details: cited from earlier work
[2] = tested on: hPSCs; test: hPSC differentiation to mesoderm and KDR+CD235a+ primitive hematopoietic precursors; type: cell-based, human
Source text: Inhibition of Wnt signaling biases early mesoderm cells from the posterior primitive streak to generate KDR+CD235a+ primitive hematopoietic precursors (Sturgeon et al., Nat. Biotechnol. (2014); 32, 554-561). These precursors will go on to initiate primitive hematopoiesis in the yolk sac, giving rise to early EMPs. In this microglial differentiation scheme, the present example adapted Wnt inhibition to induce primitive hematopoiesis from hPSCs in a monolayer strategy. […] These cells were also KDR+ and CD235a+ (primitive hematopoietic precursors) by day 4 of differentiation by flow cytometry. […] Next, the present example developed the timeline of hemogenic endothelium and hematopoietic cell. Hemogenic endothelium developed after 1 day of replating the sorted KDR^+CD235A^+ primitive hematopoietic precursors. These cells gave rise to hematopoietic cells in suspension over 7 days in culture, gradually becoming more numerous in culture (FIG. 2). In order to validate hemogenic endothelium by VE-cadherin+staining, at 1 day post-sort, the cells were positive for VE-cadherin by immunofluorescence confirming that they were hemogenic endothelium, and the cells in suspension had characteristic small nuclei of hematopoietic cells (FIG. 3). […]

[3] = tested on: rodent GSK3β homologs; details: cited from earlier work
[4] = tested on: WNT pathway; details: at the level of the pathway activator Porcupine; read-out: IC50 WNT pathway inhibition; cited from earlier work
[5] = tested on: pMacs; test: Serum-free maturation of pMacs into macrophages; type: cell-based, human; details: pMacs in IMDM/F12/N2/B27 without serum
Source text: In the second strategy to generate microglia, the EMPs were matured into macrophages with 10% serum and M-CSF and IL-34. They developed the mature macrophage marker Cd11b by day 4 in culture, and the mature spindle morphology by day 11 (FIG. 10). All the cells that persisted in culture in serum and M-CSF and IL-34 after 11 days were CD45^+, indicating they were all hematopoietic. The majority also were positive for mature macrophage markers such as CX3CR1, CD14, Cd11b, and dectin by flow cytometry analysis (FIG. 11). The pMacs can also be matured into macrophages without serum, using IMDM/F12/N2/B27 in place of serum along with M-CSF and IL-34 (FIG. 12). […] Macrophage cells co-cultured with neurons yielded microglial cells with branching morphology and increased Iba1 immunofluorescence staining (FIG. 13). Iba1 was increased in microglial cells from macrophages, so the cells had transitioned into microglial identity through co-culture with neurons. Co-cultured pMac-derived microglia (EMP co-culture) and pMac-macrophage derived microglia (EMP-macrophage co-culture) share expression of key microglial genes with human fetal microglia (FIG. 14). Quantitative PCR of RNA from the two different strategies to derive microglia shared gene expression of a panel of key microglial genes with RNA from human fetal microglia (commercial source).

[6] = tested on: hPSC-derived microglial cells; test: Amyloid-beta phagocytosis by hPSC-derived microglial cells (FACS); type: cell-based, human; details: flow cytometry
Protocol: (§1) hPSC-derived microglia were used to model two neurodegenerative diseases, Alzheimer's and Amyotrophic Lateral Sclerosis (ALS). Mixed cultures of hPSC-derived microglia and Alzheimer's iPSC-derived neurons allowed to observe microglial activation in the disease culture, particularly with respect to increased complement C3 release. […] C3 was measured via ELISA. Additionally, GM-C SF diminished the C3 release in all cultures, both Alzheimer's and control (FIG. 20). […] Amyloid-β burden was decreased in microglial co-cultures with selectivity for amyloid-42 peptide (FIG. 21). […] Increased fluorescence of 42-488 inside microglial cells indicated increased uptake (FIG. 22). […] Switching fluorophores yielded similar result: amyloid-beta 42 was taken up more by microglial cells (FIG. 23). The fluorophores representing amyloid 42 and 40 were switched to make sure the effect of increased 42 brightness within cells was not due to a technical fluorophore brightness effect. Even with the switched fluorophores, in this experiment 42 was tagged to 555 and 40 to 488, there was more 42 brightness within microglial cells via immunofluorescence, corroborating the previous results that microglial cells phagocytosed amyloid-beta 42 selectively.

[7] = tested on: complement C3 release from hPSC-derived microglia cultures; test: C3 release in Alzheimer's and H9 control co-cultures (ELISA); type: cell-based, human; details: all cultures, both Alzheimer's and control
Protocol: as §1
Culture supernatants were analyzed for C3 using the Millipore Luminex Multiplex Kit on the FlexMap 3D system. […]

Question: What does the source list for `Oc1nc(-c2ccc(C(F)(F)F)cc2)nc2c1CSCC2` [XAV939]?
Answer: degradation of β-catenin [1]: promotes the degradation of β-catenin; protein levels of the axin-GSK3β complex [1]: increases

Question: What does the source list for `Cc1c[nH]c(-c2cnc(NCCNc3ccc(C#N)cn3)nc2-c2ccc(Cl)cc2Cl)n1` [CHIR99021, 6-(2-(4-(2,4-dichlorophenyl)-5-(4-methyl-1H-imidazol-2-yl)pyrimidin-2-ylamino)ethylamino)nicotinonitrile]?
Answer: percentage of primitive hematopoietic precursors (KDR+CD235a+) ([2]; 18 hr at 3 uM followed by Wnt inhibition via IWP2 at 3 uM, flow cytometry): highest percentage; early mesoderm marked by Brachyury (T) ([2]; eighteen hours of Wnt activation, immunofluorescence): gave rise to early mesoderm; IC50 values against rodent GSK3β homologs [3]: nanomolar

Question: With `Cc1ccc2nc(NC(=O)CSc3nc4c(c(=O)n3-c3ccccc3)SCC4)sc2c1` [IWP-2, N-(6-methyl-1,3-benzothiazol-2-yl)-2-[(4-oxo-3-phenyl-6,7-dihydrothieno[3,2-d]pyrimidin-2-yl)thio]acetamide] as the compound, how does the pIC50 [4] read?
Answer: 7.57

Question: For “GM-CSF: granulocyte-macrophage colony-stimulating factor”, which “cell yield / cell division and appearance” value [5] is on record?
Answer: allowed division of the cells as well but the resulting cells appeared more granular and activated

Question: What about the “phagocytosis of amyloid-beta 40” value [6] of the same compound?
Answer: increased

Question: And the “phagocytosis of amyloid-beta 42” value [6]?
Answer: increased

Question: And the C3 release [7]?
Answer: diminished

From patent publication US20210214681A1, “STEM CELL-DERIVED HUMAN MICROGLIAL CELLS, METHODS OF MAKING AND METHODS OF USE” (MEMORIAL SLOAN-KETTERING CANCER CENTER, priority 2018, published 2021)
